Experimental data taken from US20240201172A1, “USE OF ODORANT RECEPTOR FOR SUPPRESSING LACTATE-INDUCED M2-TYPE DIFFERENTIATION OF TUMOR-ASSOCIATED MACROPHAGES AND TUMOR GROWTH” (KYUNGPOOK NATIONAL UNIVERSITY INDUSTRY-ACADEMIC COOPERATION …, priority 2021, published 2024).

Experiments:
Type in all cases: cell-based
Olfr78/Gpr132 = target: T1, Olfr78/Gpr132 (Mus musculus, UniProt Q8VBV9+Q9Z282); assay: Luciferase assay in transfected Hana3A cells; details: Hana3A cells cotransfected with Olfr78 and Gpr132 vs Olfr78 or Gpr132 alone, FIG. 6D
T1 construct: expressed in transfected cells; host or cells: Hana3A cells
T1 sequence (Q8VBV9 1-320): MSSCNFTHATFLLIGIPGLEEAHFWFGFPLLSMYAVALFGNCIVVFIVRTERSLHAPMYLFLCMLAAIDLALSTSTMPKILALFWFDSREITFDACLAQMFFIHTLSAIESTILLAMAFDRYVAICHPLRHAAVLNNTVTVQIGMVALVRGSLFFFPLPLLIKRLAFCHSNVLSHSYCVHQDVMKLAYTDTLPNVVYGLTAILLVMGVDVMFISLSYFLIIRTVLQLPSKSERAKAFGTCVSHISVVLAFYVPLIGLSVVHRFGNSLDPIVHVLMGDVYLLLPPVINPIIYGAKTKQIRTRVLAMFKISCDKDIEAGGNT
T1 sequence (Q9Z282 1-382): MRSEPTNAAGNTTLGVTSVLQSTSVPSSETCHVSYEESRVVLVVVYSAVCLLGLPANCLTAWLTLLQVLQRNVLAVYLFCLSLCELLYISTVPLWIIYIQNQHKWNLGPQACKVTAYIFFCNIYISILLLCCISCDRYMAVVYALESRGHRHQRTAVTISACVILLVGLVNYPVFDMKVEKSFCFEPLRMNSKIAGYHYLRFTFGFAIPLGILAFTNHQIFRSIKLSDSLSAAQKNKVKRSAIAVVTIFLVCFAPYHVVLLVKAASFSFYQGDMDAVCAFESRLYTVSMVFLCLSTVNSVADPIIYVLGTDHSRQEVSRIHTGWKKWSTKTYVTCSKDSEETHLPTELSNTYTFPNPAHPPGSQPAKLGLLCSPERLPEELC
Protocol: Luciferase assays were performed using the Dual-Glo™ Luciferase Assay System (Promega, Madison, WI). Briefly, Mock-, Olfr78−, Gpr132−, or Olfr78/Gpr132 transiently transfected Hana3A cells were stimulated with various concentrations of sodium lactate diluted in CD293 medium at 37° C. for 4 h. The activity of firefly luciferase was normalized against that of Renilla luciferase. Luminescence was measured on a SpectraMax L microplate reader (Molecular Devices, San Jose, CA).

lactate dehydrogenase = assay: Lactate concentration in TCM of mouse tumor cell lines pretreated with oxamic acid; details: pretreatment of mouse tumor cell lines, FIG. 4A
Protocol: The concentrations of lactate and acetate in TCM of cells cultured at 80% confluency were measured using lactate and acetate colorimetric assay kits (BioVision, Milpitas, CA). Briefly, 50 μL of TCM was mixed with lactate or acetate enzyme mix and the probe according to the manual and reacted for 30 min at room temperature. The concentrations of cytokines in the conditioned medium of macrophages were measured using cytokine ELISA kits (R&D Systems). Briefly, 100 μL of conditioned medium was added to plates precoated with antibodies against IL-4, IL-10, and TGF-β. Samples were reacted with corresponding antibodies conjugated to biotin and then with horseradish peroxidase-labeled streptavidin. Absorbance at 570 nm was measured using a microplate reader. The concentrations of lactate, acetate, and cytokines were calculated from the standard curves.
To determine, though lactate is known to be important in M2 macrophage polarization, whether lactate is the main factor in TCM responsible for Olfr78-mediated M2 macrophage polarization, the prevent inventors treated WT BMDMs with TCM of mouse tumor cell lines pretreated with oxamic acid (OA), an inhibitor of lactate dehydrogenase that prevents lactate production. […] Up-regulation of M2 markers was attenuated (P<0.05) in WT BMDMs treated with lactate-depleted TCM (TCM+OA). […]

[1] = test system: THP-1 human immortalized monocytes; assay: M1/M2 polarization of PMA-treated THP-1 human monocytes; details: for M1 markers such as iNOS, CD86, TNF-α, and IL-12B / M2 markers such as Arg-1, CD163, CD206, and IL-10: OR51E2-depleted THP1 cells vs untreated; for M1 markers such as iNOS, CD86, TNF-α, and IL-12B: FIGS. 3D, 3E, 3I-K; for M2 markers such as Arg-1, CD163, CD206, and IL-10: FIGS. 3D-H; for protein and mRNA levels of OR51E2: FIGS. 2B, 2C; for levels of M2 macrophage markers such as Arg1, CD206, CD163, and IL-10: FIGS. 2D-H
Protocol: (§1) Anti-CD11b, anti-CD3, anti-CD4, anti-CD8, anti-CD86, anti-F4/80, anti-CD206, anti-CD163, and anti-Gr1 antibodies were purchased from BioLegend (San Diego, CA). An anti-Olfr78 antibody was purchased from LSBio (Seattle, WA). Anti-CD206 and anti-CD86 antibody was purchased from Santa Cruz Biotechnology (Dallas, TX). Cells were fixed with 4% paraformaldehyde and then reacted with an untagged primary antibody or a dye-tagged antibody at 4° C. for 30 min in the dark. Cells treated with an untagged primary antibody (anti-Olfr78, anti-CD206, and anti-CD86) were washed and reacted with a dye-tagged secondary antibody. At least 10,000 or more events were analyzed using a flow cytometer (BD Bioscience, San Jose, CA). Data were evaluated using CellQuest Pro software (BD Biosciences). To prepare cell suspensions from tumor tissues, freshly excised tumors were fragmented into several pieces, minced into 2-3 mm^3 pieces, and reacted with collagenase D (Roche, Basel, Switzerland) and DNase (Sigma-Aldrich) at 37° C. for 40 min. The tissue samples were filtered through a 100 μm cell strainer (Falcon, Corning, NY) to collect digested cells. Collected cells were resuspended in phosphate-buffered saline containing FBS and subjected to flow cytometry.
(§2) Cells were lysed using QIAzol lysis reagent (Qiagen, Hilden, Germany). RNA was isolated from cell lysates using an miRNeasy Mini Kit (Qiagen) and subjected to qRT-PCR. Primers targeting Arg1, IL-10, IL-4, TGF-0, IL-12p40, IFN-γ, and R-actin were obtained from Bioneer Inc. (Daejeon, Korea). cDNA was synthesized using a PrimeScript 1st cDNA Synthesis Kit (Takara, Shiga, Japan). qPCR using SYBR Green (Qiagen) was performed on a real time cycler (Bio-Rad, Hercules, CA). R-Actin was used as an endogenous control. Data used to determine relative expression were analyzed according to the Livak method.
For coimmunoprecipitation assays, cells were lysed with M-PER Mammalian Protein Extraction Reagent (ThermoFisher Scientific, Waltham, MA). Cell lysates were reacted with 2 μg of an antibody against Olfr78 or Gpr132 at 4° C. overnight and then with 100 μl of protein A-agarose beads (ThermoFisher Scientific) at 4° C. for 4 h with agitation. The beads were boiled, and the eluates were subjected to Western blotting with an antibody against Olfr78 or Gpr132. 40 μg of protein was electrophoresed on a 10% SDS-PAGE gel and transferred to a membrane (MilliPore, Burlington, MA). The membrane was reacted with antibodies against iNOS (Abcam, Cambridge, UK), Arg1 (Abcam), and R-actin (Santa Cruz Biotechnology) at 4° C. overnight followed by secondary antibody at room temperature for 2 h, and then exposed to a chemiluminescence substrate (ThermoFisher Scientific). Signals were visualized using an LAS1000 enhanced chemiluminescence detection system (Fuji Film, Minato, Tokyo).
To examine the effect of ORs on M2 polarization of human macrophages, THP-1 human immortalized monocytes were treated with phorbol myristate acetate (PMA) and then with L+I, IL-4, TCM, or lactate.

BMDMs = assay: M1/M2 polarization of mouse BMDMs (flow cytometry, qRT-PCR, cell shape); details: for Olfr78 expression: BMDMs differentiated into M2 or M1 macrophages, FIG. 1B
Protocol: BMDMs were isolated from tibias and femurs of C57BL6 or Balb/c mice and cultured in DMEM supplemented with 10 ng/mL macrophage colony-stimulating factor (Gibco, Carlsbad, CA) and 10% FBS for 7 d. The culture medium was changed every other day. For M1 polarization, BMDMs were cultured with 20 ng/mL recombinant mouse IFN-γ (R&D Systems) plus 100 ng/mL LPS for 24 to 48 h. For M2 polarization, BMDMs were cultured with 20 ng/mL recombinant mouse IL-4 for 24 to 48 h. For lactate-mediated M2 polarization, BMDMs were treated with 10 mM lactate (Sigma-Aldrich, St. Louis, MO) at 37° C. in a humidified atmosphere containing 5% CO2 for 24 to 48 h.
as §1, §2
To examine the involvement of Olfr78 in lactate-induced M2 polarization of macrophages, the present inventors conducted investigation on whether Olfr78 was expressed in BMDMs isolated from Olfr78^+/+ (WT) and Olfr78^−/− mice. […] Next, the present inventors differentiated BMDMs into M1 and M2 macrophages to investigate whether the expression level of Olfr78 was regulated according to macrophage polarization. Lactate, TCM, and IL-4 were used to stimulate M2 polarization, while lipopolysaccharide (LPS) plus interferon (IFN)-γ (L+I) was used to stimulate M1 polarization. […] To investigate the effect of Olfr78 on macrophage polarization, the present inventors measured the protein levels of M2 macrophage markers such as CD206 (FIG. 1C) and the mRNA levels of IL-4, IL-10, and TGF-β(FIGS. 1E-G), as well as M1 macrophage markers such as CD86 (FIG. 1D) and the mRNA levels of IL-12 and IFN-γ (FIGS. 1H and 1I) when WT and Olfr78^−/− BMDMs were differentiated into M1 and M2 macrophages. […] Next, the present inventors restored Olfr78 expression in Olfr78^−/− BMDMs by transfecting them with a Flag-tagged Olfr78 expression vector.

CC(O)C(=O)[O-].[Na+] (stereo not drawn) [sodium lactate]
Relative luciferase activity (Olfr78/Gpr132): significantly higher

NC(=O)C(=O)O [OA, oxamic acid]
lactate in TCM (lactate dehydrogenase): almost completely depleted

lactate
M2 polarization of THP-1 human monocytes ([1]; FIG. 2 legend): induces M2 polarization
M1 markers such as iNOS, CD86, TNF-α, and IL-12B [1]: did not up-regulate M2 markers such as Arg-1, CD163, CD206, and IL-10 (FIGS. 3D-H) or down-regulate M1 markers
M2 markers such as Arg-1, CD163, CD206, and IL-10 [1]: did not up-regulate
iNOS levels ([1]; THP-1 cells vs untreated, FIGS. 2D, 2E): decreased
protein and mRNA levels of OR51E2 ([1]; THP-1 cells): significantly (P<0.01) increased
levels of M2 macrophage markers such as Arg1, CD206, CD163, and IL-10 ([1]; THP-1 cells): increased
levels of M1 macrophage markers such as CD86, TNF-α, and IL-12B ([1]; THP-1 cells, FIGS. 2I-K): did not affect
Olfr78 expression (BMDMs): significantly increased
mRNA levels of IL-4, IL-10, and TGF-β (lactate-induced) (BMDMs; Gpr132-depleted Olfr78−/− BMDMs, FIGS. 6G-I): further reduced
Lactate-induced up-regulation of mRNA levels of M2 cytokines such as IL-4, IL-10, TGF-β, and Arg1 (BMDMs; Gpr132-depleted WT BMDMs, FIGS. 6G-J): significantly (P<0.01) reduced
M2-specific and M1-specific markers (BMDMs; Olfr78−/− BMDMs vs untreated, FIGS. 1C-I): did not exhibit up-regulation of M2-specific markers or down-regulation of M1-specific markers
protein level of CD206 (M2 marker) (BMDMs; WT BMDMs vs untreated, FIG. 1C): dramatically (P<0.001) higher
protein level of CD86 (M1 marker) (BMDMs; WT BMDMs vs untreated, FIG. 1D): significantly lower
mRNA levels of IL-4, IL-10, and TGF-β (M2 markers) (BMDMs; WT BMDMs vs untreated, FIGS. 1E-G): dramatically (P<0.001) higher
mRNA levels of IL-12 and IFN-γ (M1 markers) (BMDMs; WT BMDMs vs untreated, FIGS. 1H and 1I): significantly lower
M2 polarization markers, such as CD206, IL-4, IL-10, and TGF-0 (BMDMs; WT BMDMs vs untreated, FIGS. 4B-E): significant up-regulation
percentage of cells with an elongated shape (BMDMs; WT BMDMs vs untreated, FIGS. 4F, 4G): increase

CC(=O)O [acetate]
M2 polarization (BMDMs; Olfr78−/− BMDMs, FIGS. 4H-J): did not induce M2 polarization
mRNA levels of M2 markers such as IL-4, IL-10, and TGF-β (BMDMs; WT BMDMs, FIGS. 4H-J): significantly (P<0.001) increased

B1: IL-4: recombinant interleukin-4 used to stimulate M2 polarization (protein, UniProt P05112 25-153, looked up)
Interleukin-4: HKCDITLQEIIKTLNSLTEQKTLCTELTVTDIFAASKNTTEKETFCRAATVLRQFYSHHEKDTRCLGATAQQFHRHKQLIRFLKRLDRNLWGLAGLNSCPVKEANQSTLENFLERLKTIMREKYSKCSS
M1 markers such as iNOS, CD86, TNF-α, and IL-12B [1]: down-regulated
M2 markers such as Arg-1, CD163, CD206, and IL-10 [1]: still up-regulated
protein and mRNA levels of OR51E2 ([1]; THP-1 cells): significantly (P<0.01) increased
levels of M2 macrophage markers such as Arg1, CD206, CD163, and IL-10 ([1]; THP-1 cells): increased
Olfr78 expression (BMDMs): significantly increased
CD206 (BMDMs; Olfr78−/− BMDMs, FIG. 1C): still up-regulated
CD86 (BMDMs; Olfr78−/− BMDMs, FIG. 1D): down-regulated
protein level of CD206 (M2 marker) (BMDMs; WT BMDMs vs untreated, FIG. 1C): up-regulated
protein level of CD86 (M1 marker) (BMDMs; WT BMDMs vs untreated, FIG. 1D): down-regulated
